Read-outs that look alike come from different tables or passages of the source.

The test system of data set [1] is tyrosinase. The note with it: of 27 flavonoids tested; cited from earlier work.
Data set [2] is described as follows: Cytotoxicity determination (MTT). The class given is cell-based, mouse. To be noted: mouse, B16V mouse melanoma cells; Table 3, repeat of the Table 1 values; read-out: IC50 cytotox. As to the method: (§1) B16V mouse melanoma cells are disseminated in a 96-well microtitre plate in a concentration of 2×10^4 cells/well (B16V). After cultivation for 24 h at 37° C. and 5% CO2 in RPMI medium (B16V cells), enriched with 10% foetal calf serum, the medium is drawn off. Various concentrations of the test substances, dissolved in fresh medium enriched with 5% foetal calf serum, are added and incubated for a further 48 h. In parallel the cells are incubated with SDS as standard in concentrations of 0.01 mM, 0.1 mM, 1 mM and 10 mM. After incubation the medium is drawn off and the cells are incubated for 2 h with MTT (3-[4,5-dimethylthiazol-2-yl]2,5-diphenyl tetrazolium bromide). After extraction of the dye (MTT) with acetic acid SDS in DMSO (10 min), the absorption (A) is measured at 570 nm.
(§2) The mean and standard deviation of the controls, blanks and samples are calculated. The mean of the blank is subtracted from the means of the controls and samples. The viability of the cells is stated as a percentage relative to the controls (100%):
(§3) Viability (%)=[(Atest compound/Acontrol)×100]
(§4) The IC50 (mean inhibitory concentration) indicates the test substance concentration at which 50% of the cells are vital.

For data set [3], the system named is B16V mouse melanoma cells. Put plainly: Cytotoxicity determination (MTT). It is filed as cell-based. To be noted: MTT viability, 48 h incubation, concentration at which 50% of the cells are vital. As to the method:
as §1, §2, §3, §4

For data set [4], the system named is B16V mouse melanoma cells. Put plainly: Pigmenting effect (stimulation of pigmentation). It is filed as cell-based. How it is done: mouse melanoma cells are disseminated in a 96-well microtitre plate in a concentration of 5×10^3 cells/well. After cultivation for 24 h at 37° C. and 5% CO2 in RPMI medium, enriched with 10% foetal calf serum, various concentrations of the test substances and 10 nM α-MSH (α-melanocyte stimulating hormone) are added and incubated for a further 96 h. […] The stimulation of pigmentation in the presence of the test compounds was calculated using the following equation: Stimulation of pigmentation (%)=[(A test compound/A control)×100]-100 From the stimulation of pigmentation (%) in a series of dilutions of test compounds, the EC50 for each test compound was calculated. This is the concentration of a test compound at which pigmentation is stimulated by 50%.

The test system of data set [5] is male rats. The note with it: cited from earlier work.
Data set [6] deals with B16V melanoma cells. The note with it: cited from earlier work.
Data set [7] deals with B16V melanoma cells. The note with it: cited from earlier work. This is another data set of the same source.
Data set [8] deals with melanoma cells. The note with it: cited from earlier work.
Data set [9] concerns melanin synthesis. The note with it: cited from earlier work.
Data set [10] has as its system melanoma cells. The note with it: cited from earlier work. This is another data set of the same source.
Data set [11] relates to glucose absorption. To be noted: cited from earlier work.
Setting [12] is: 96 h with 10 nM α-MSH, concentration at which pigmentation is stimulated by 50%, non-cytotoxic concentration range.
[13] abbreviates: Table 3, repeat of the Table 2 values.
[14] abbreviates: Mus musculus, 96 h, 96 h with 10 nM α-MSH, concentration at which pigmentation is stimulated by 50%, non-cytotoxic concentration range.
The mark [15] stands for this setting: Mus musculus, read-out: EC50 pigm. effect, Table 3, repeat of the Table 2 values.

Consider `O=c1c(O)c(-c2ccc(O)cc2)oc2cc(O)cc(O)c12` [Kaempferol], for which the tyrosinase inhibition entry in data set [1] is reported as “tyrosinase inhibition”. For the same compound, the IC50 at 48 h in data set [2] was 43 µM. For the same compound, the IC50 in data set [3] (Mus musculus, read-out: IC50) was determined as 43 µM. Besides, in [4] (setting [12]), the EC50 result was “inactive”. Besides, the EC50 pigm. effect entry in [4] (setting [13]) is “inactive”.

In the case of `O=c1cc(-c2ccc(O)c(O)c2)oc2cc(O)cc(O)c12` [Luteolin], the tyrosinase inhibition result in data set [1] was “tyrosinase inhibition”. In data set [2], the 50% inhibitory concentration (IC50) at 48 h is 37 µM. Besides, in [3] (Mus musculus, read-out: IC50), the IC50 was 37 µM. For the same compound, the EC50 entry in data set [4] (setting [12]) is “inactive”. In addition, in [4] (setting [13]), the EC50 pigm. effect result was “inactive”.

Regarding `COc1ccc([C@@H]2CC(=O)c3c(O)cc(O[C@@H]4O[C@H](CO[C@@H]5O[C@@H](C)[C@H](O)[C@@H](O)[C@H]5O)[C@@H](O)[C@H](O)[C@H]4O)cc3O2)cc1O` [Hesperidin], the IC50 at 48 h in data set [2] is 1500 µM. Besides, the concentration for half-maximal inhibition (IC50) in [3] (Mus musculus, 48 h) was more than 1000 µM. Further, the values for the EC50 in [4] (setting [14]) and in data set [4] (setting [15]) were less than 2 µM and 1.5 µM, respectively.

For the compound `O=c1c(O)c(-c2ccc(O)c(O)c2)oc2cc(O)cc(O)c12` [Quercetin], in data set [1], the tyrosinase inhibition entry was “tyrosinase inhibition”. In addition, the hepatotoxic effect result in data set [5] is listed as “hepatotoxic effect”. Further, in [6] (maximum non-cytotoxic concentration of 0.003 mM), the “melanin relative to the untreated control” value was “+38%”. Moreover, the IC50 at 48 h in data set [2] is 48 µM. In addition, the IC50 in [3] (Mus musculus, read-out: IC50) came to 48 µM. Besides, the maximum non-cytotoxic concentration in data set [7] is recorded as 0.003 mM. Besides, the EC50 stood at 15 µM in data set [4] (Mus musculus, 96 h with 10 nM α-MSH, concentration at which pigmentation is stimulated by 50%, non-cytotoxic concentration range, read-out: EC50) and 15 µM in data set [4] (Mus musculus, Table 3, repeat of the Table 2 values, read-out: EC50 pigm. effect).

With `O=c1cc(-c2ccc(O)cc2)oc2cc(O)cc(O)c12` [Apigenin], the IC50 at 48 h in data set [2] was 33 µM. Besides, the IC50 in data set [3] (Mus musculus, read-out: IC50) was 33 µM. Also, the EC50 result in data set [4] (setting [12]) is “inactive”. Besides, the EC50 pigm. effect entry in [4] (setting [13]) is “inactive”.

For the compound `OC[C@H]1O[C@@H](Oc2cc3c(O)cc(O)cc3[o+]c2-c2ccc(O)c(O)c2)[C@H](O)[C@@H](O)[C@@H]1O` [cyanidin-3-β-D-glucoside], the “effect on melanin synthesis” value in data set [8] is given as “stimulates melanin synthesis”.

theaflavinmonogallate: in data set [1], the tyrosinase inhibition entry is recorded as “tyrosinase inhibition”.

For `O=C(CCc1ccc(O)cc1)c1c(O)cc(O)cc1O` [phloretin], the effect on melanogenesis result in data set [6] (non-cytotoxic concentrations) is “ineffective”.

For `O=C(O[C@@H]1Cc2c(O)cc(O)cc2O[C@@H]1c1cc(O)c(O)c(O)c1)c1cc(O)c(O)c(O)c1` [epigallocatechin gallate], the “effect on melanin synthesis” value in data set [9] is “inhibition of melanin synthesis”.

Regarding `COc1ccc([C@@H]2CC(=O)c3c(O)cc(O)cc3O2)cc1O` [Hesperetin], the IC50 at 48 h in [2] amounted to 40 µM. Moreover, in data set [3] (Mus musculus, read-out: IC50), the IC50 worked out at 40 µM. For the same compound, in data set [4] (setting [12]), the EC50 result is “inactive”. For the same compound, the EC50 pigm. effect entry in [4] (setting [13]) is “inactive”.

With `O=c1c(-c2ccc(O)cc2)coc2cc(O)ccc12` [daidzein], the “effect on melanin production / melanogenesis” value in data set [10] is listed as “no effect on melanogenesis”.

Consider `O=c1c(O)cc([C@H]2Oc3cc(O)cc(O)c3C[C@H]2O)cc2c([C@H]3Oc4cc(O)cc(O)c4C[C@H]3O)cc(O)c(O)c12` [theaflavin], for which, in data set [1], the tyrosinase inhibition result is “tyrosinase inhibition”.

As to `O=C1C[C@@H](c2ccc(O)cc2)Oc2cc(O)cc(O)c21` [Naringenin], the IC50 at 48 h in data set [2] worked out at 30 µM. Also, the 50% inhibitory concentration (IC50) in data set [3] (Mus musculus, read-out: IC50) turned out to be 30 µM. In addition, the EC50 entry in data set [4] (setting [12]) was “inactive”. Also, the EC50 pigm. effect entry in data set [4] (setting [13]) was “inactive”.

For the compound `O=c1c(-c2ccc(O)cc2)coc2cc(O)cc(O)c12` [genistein], the “effect on melanin production / melanogenesis” value in data set [10] is “increases melanin production”.

As for `C[C@@H]1O[C@@H](O[C@H]2[C@H](Oc3cc(O)c4c(c3)OC(c3ccc(O)cc3)CC4=O)O[C@H](CO)[C@@H](O)[C@@H]2O)[C@H](O)[C@H](O)[C@H]1O` (stereo partly drawn) [Naringin], in [2], the IC50 at 48 h is more than 10000 µM. The IC50 in [3] was more than 10000 µM. Moreover, the EC50 in data set [4] (setting [15]) worked out at 0.5 µM.

Regarding `O=c1c(O)c(-c2cc(O)c(O)c(O)c2)oc2cc(O)cc(O)c12` [myricetin], the tyrosinase inhibition result in [1] is “tyrosinase inhibition”.

For the compound `COc1ccc(C2CC(=O)c3c(O)cc(OC4OC(CO)C(O)C(O)C4OC4OC(C)C(O)C(O)C4O)cc3O2)cc1O` (stereo not drawn) [Neohesperidin], the IC50 at 48 h in [2] was more than 4000 µM. The compound further displayed an IC50 in [3] of more than 4000 µM. Besides, the EC50 in data set [4] (setting [14]) was less than 2 µM; in data set [4] (setting [15]) it was 1 µM.

With `O=c1c(O)c(-c2ccc(O)cc2O)oc2cc(O)cc(O)c12` [morin], in data set [1], the tyrosinase inhibition entry is on record as “tyrosinase inhibition”.

As for `O=C(CCc1ccc(O)cc1)c1c(O)cc(O)cc1O[C@@H]1O[C@H](CO)[C@@H](O)[C@H](O)[C@H]1O` [Phloridzin], in data set [11], the “inhibition of glucose absorption” value is given as “inhibitor of glucose absorption” and the toxicity to reproduction result was “toxic to reproduction”. In addition, the “melanin relative to the untreated control” value in data set [6] (1 mM) is on record as “+81%”. Also, the cytotoxicity entry in data set [7] is “no cytotoxicity”.
